Experimental findings from PubChem BioAssay AID192 (DTP/NCI, 2004) are described below.

SMILES strings stand for the structures. Several values for one entry are separate records, joined by “and”; a condition that tells them apart may be missing. Equal values may be shown once. Toxic doses and inconclusive results are not listed.

This test concerns BDF1 mice, B16 melanoma ip, median survival T/C. The test can be described thus: NCI In Vivo Anticancer Drug Screen. Data for tumor model B16 Melanoma (intraperitoneal) in B6D2F1 (BDF1) mice. The following applies: endpoint: median survival time, higher = longer survival. A digest of the protocol: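 Values are ratios of treated (T) to vehicle-control (C) measurements of survival or tumor size in tumor-bearing mice.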

The mark [1] stands for this setting: dose: 25.0 mg/kg/injection, schedule: Q01DX009 (ip), vehicle: saline with Tween-80.
The mark [2] stands for this setting: dose: 50.0 mg/kg/injection, schedule: Q01DX009 (ip), vehicle: saline with Tween-80.
Setting [3] is: dose: 100.0 mg/kg/injection, schedule: Q01DX009 (ip), vehicle: saline with Tween-80.
[4] abbreviates: dose: 200.0 mg/kg/injection, schedule: Q01DX009 (ip), vehicle: saline with Tween-80.
Setting [5] is: dose: 400.0 mg/kg/injection, schedule: Q01DX009 (ip), vehicle: saline with Tween-80.
[6] abbreviates: dose: 100.0 mg/kg/injection, schedule: Q01DX009 (ip), vehicle: Klucel (hydroxypropylcellulose) (HPC).
The mark [7] stands for this setting: dose: 100.0 mg/kg/injection, schedule: Q04DX003 (ip), vehicle: Klucel (hydroxypropylcellulose) (HPC).
The mark [8] stands for this setting: dose: 200.0 mg/kg/injection, schedule: Q01DX009 (ip), vehicle: Klucel (hydroxypropylcellulose) (HPC).
Where [9] appears, read: dose: 200.0 mg/kg/injection, schedule: Q04DX003 (ip), vehicle: Klucel (hydroxypropylcellulose) (HPC).
Setting [10] is: dose: 400.0 mg/kg/injection, schedule: Q01DX009 (ip), vehicle: Klucel (hydroxypropylcellulose) (HPC).
Setting [11] is: dose: 400.0 mg/kg/injection, schedule: Q04DX003 (ip), vehicle: Klucel (hydroxypropylcellulose) (HPC).
Where [12] appears, read: dose: 0.78 mg/kg/injection, schedule: Q01DX009 (ip), vehicle: saline.
The mark [13] stands for this setting: dose: 1.56 mg/kg/injection, schedule: Q01DX009 (ip), vehicle: saline.
[14] abbreviates: dose: 3.12 mg/kg/injection, schedule: Q01DX009 (ip), vehicle: saline.
The mark [15] stands for this setting: dose: 6.25 mg/kg/injection, schedule: Q01DX009 (ip), vehicle: saline.
Where [16] appears, read: dose: 12.5 mg/kg/injection, schedule: Q01DX009 (ip), vehicle: saline.
[17] abbreviates: dose: 50.0 mg/kg/injection, schedule: Q01DX009 (ip), vehicle: Klucel (hydroxypropylcellulose) (HPC).

For the compound `Cc1noc2c1ncc[n+]2[O-]`, the T/C (dose: 5.0 mg/kg/injection, schedule: Q01DX009 (ip), vehicle: saline with Tween-80) is 108 % of control; the T/C (dose: 10.0 mg/kg/injection, schedule: Q01DX009 (ip), vehicle: saline with Tween-80) was 119 % of control; the T/C (dose: 20.0 mg/kg/injection, schedule: Q01DX009 (ip), vehicle: saline with Tween-80) was 116 % of control.
As for `CC(C)CNC(=O)Nc1ccccc1C(F)(F)F`, the T/C was 97 % of control under setting [1]; 96 % of control under setting [2]; 86 % of control and 93 % of control under setting [3]; 105 % of control under setting [4]; 97 % of control under setting [5].
With `COc1cc2cc(c1Cl)N(C)C(=O)CC(OC(=O)C(C)C)C1(C)OC1C(C)C1CC(O)(NC(=O)O1)C(OC)/C=C/C=C(C)C2` (centres undefined), the T/C by setting is: (dose: 3.1 micrograms/kg/injection, schedule: Q01DX009 (ip), vehicle: saline + alcohol) 124 % of control; (dose: 6.25 micrograms/kg/injection, schedule: Q01DX009 (ip), vehicle: saline + alcohol) 169 % of control; (dose: 7.0 micrograms/kg/injection, schedule: Q01DX009 (ip), vehicle: saline + alcohol) 150 % of control; (dose: 12.5 micrograms/kg/injection, schedule: Q01DX009 (ip), vehicle: saline + alcohol) 152 % of control and 168 % of control; (dose: 15.0 micrograms/kg/injection, schedule: Q01DX009 (ip), vehicle: saline + alcohol) 165 % of control; (dose: 25.0 micrograms/kg/injection, schedule: Q01DX009 (ip), vehicle: saline + alcohol) 157 % of control and 160 % of control and 165 % of control. Moreover, the T/C reads like this: (dose: 30.0 micrograms/kg/injection, schedule: Q01DX009 (ip), vehicle: saline + alcohol) 178 % of control; (dose: 50.0 micrograms/kg/injection, schedule: Q01DX009 (ip), vehicle: saline + alcohol) 164 % of control and 176 % of control; (dose: 60.0 micrograms/kg/injection, schedule: Q01DX009 (ip), vehicle: saline + alcohol) 182 % of control.
Turning to `COc1ccc(C(=O)c2ccc(C)cc2)cc1`, the T/C is 97 % of control under setting [6]; 88 % of control under setting [7]; 93 % of control under setting [8]; 95 % of control under setting [9]; 93 % of control under setting [10]; 102 % of control under setting [11].
Turning to `OCCN1CCN(CCCN2c3ccccc3Oc3ccc(C(F)(F)F)cc32)CC1`, the T/C runs as follows: under setting [12], 105 % of control; under setting [13], 100 % of control; under setting [14], 107 % of control; under setting [15], 102 % of control; under setting [16], 87 % of control.
For the compound `C1CN1P1(N2CC2)=NP(N2CC2)(N2CC2)=NP(N2CC2)(N2CC2)=NP(N2CC2)(N2CC2)=N1`, the T/C was 105 % of control (dose: 1.0 mg/kg/injection, schedule: Q01DX009 (ip), vehicle: saline); 88 % of control (dose: 1.0 mg/kg/injection, schedule: Q02DX009 (ip), vehicle: saline); 116 % of control (dose: 2.0 mg/kg/injection, schedule: Q01DX009 (ip), vehicle: saline); 95 % of control and 105 % of control (dose: 2.0 mg/kg/injection, schedule: Q02DX009 (ip), vehicle: saline); 120 % of control (dose: 4.0 mg/kg/injection, schedule: Q01DX009 (ip), vehicle: saline); 87 % of control and 90 % of control (dose: 4.0 mg/kg/injection, schedule: Q02DX009 (ip), vehicle: saline). For the same compound, the T/C was 108 % of control (dose: 8.0 mg/kg/injection, schedule: Q01DX009 (ip), vehicle: saline); 100 % of control (dose: 8.0 mg/kg/injection, schedule: Q02DX009 (ip), vehicle: saline); 93 % of control (dose: 16.0 mg/kg/injection, schedule: Q01DX009 (ip), vehicle: saline); 98 % of control and 100 % of control (dose: 16.0 mg/kg/injection, schedule: Q02DX009 (ip), vehicle: saline); 97 % of control (dose: 32.0 mg/kg/injection, schedule: Q01DX009 (ip), vehicle: saline); 87 % of control and 100 % of control (dose: 32.0 mg/kg/injection, schedule: Q02DX009 (ip), vehicle: saline). The T/C is 108 % of control (dose: 64.0 mg/kg/injection, schedule: Q01DX009 (ip), vehicle: saline); 87 % of control and 94 % of control (dose: 64.0 mg/kg/injection, schedule: Q02DX009 (ip), vehicle: saline).
In the case of `CC(C)NC1C2CCC(CC2)C1(O)c1ccc(Cl)c(Cl)c1` (centres undefined), the T/C under setting [12] is 108 % of control; the T/C under setting [13] was 107 % of control; the T/C under setting [14] is 107 % of control; the T/C under setting [15] was 104 % of control; the T/C under setting [16] is 102 % of control.
Take `COc1ccc(NC(=O)Oc2c(C(C)C)cccc2C(C)C)cc1`: the T/C is 96 % of control under setting [6]; 110 % of control under setting [7]; 96 % of control under setting [8]; 103 % of control under setting [9]; 89 % of control under setting [10]; 103 % of control under setting [11].
Turning to `c1ccc(Oc2ccccn2)cc1`, the T/C runs as follows: under setting [17], 111 % of control; under setting [6], 117 % of control; under setting [8], 123 % of control.
Regarding `CC(C)NNC(=O)c1ccccc1N`, the T/C by setting is: (dose: 12.5 mg/kg/injection, schedule: Q01DX009 (ip), vehicle: Klucel (hydroxypropylcellulose) (HPC)) 100 % of control; under setting [17], 87 % of control; under setting [6], 95 % of control; under setting [8], 97 % of control.
Turning to `CC1(C)N=C(N)N=C(N)N1c1cccc(CCCCc2cccc(S(=O)(=O)F)c2)c1`, the T/C runs as follows: (dose: 6.25 mg/kg/injection, schedule: Q01DX009 (ip), vehicle: saline with Tween-80) 115 % of control; (dose: 12.5 mg/kg/injection, schedule: Q01DX009 (ip), vehicle: saline with Tween-80) 96 % of control; under setting [1], 87 % of control.
`CCC(CC)(CO)CO`: the T/C is 92 % of control (dose: 25.0 mg/kg/injection, schedule: Q01DX009 (ip), vehicle: saline); 102 % of control (dose: 50.0 mg/kg/injection, schedule: Q01DX009 (ip), vehicle: saline); 104 % of control (dose: 100.0 mg/kg/injection, schedule: Q01DX009 (ip), vehicle: saline); 107 % of control (dose: 200.0 mg/kg/injection, schedule: Q01DX009 (ip), vehicle: saline); 97 % of control (dose: 400.0 mg/kg/injection, schedule: Q01DX009 (ip), vehicle: saline).
As for `O=C1C=C(c2ccccc2)C(O)(c2ccccc2)C1` (centres undefined), the T/C is, setting by setting: under setting [2], 97 % of control; under setting [3], 97 % of control; under setting [4], 88 % of control.
As for `Cc1ccc(Cl)cc1NS(=O)(=O)c1ccccc1`, the T/C runs as follows: under setting [3], 90 % of control; under setting [4], 95 % of control; under setting [5], 90 % of control.
Consider `CC(=O)CC(=O)N1CCCCC1C` (centres undefined), for which the T/C is 109 % of control under setting [6], 112 % of control under setting [8] and 110 % of control under setting [10].
Regarding `O=NN(CCF)C(=O)NC1CCS(=O)(=O)CC1`, the T/C is, setting by setting: (dose: 3.75 mg/kg/injection, schedule: Q01DX001 (ip), vehicle: saline) 173 % of control; (dose: 7.5 mg/kg/injection, schedule: Q01DX001 (ip), vehicle: saline) 241 % of control; (dose: 15.0 mg/kg/injection, schedule: Q01DX001 (ip), vehicle: saline) 260 % of control; (dose: 30.0 mg/kg/injection, schedule: Q01DX001 (ip), vehicle: saline) 256 % of control; (dose: 60.0 mg/kg/injection, schedule: Q01DX001 (ip), vehicle: saline) 260 % of control.
`CNC(c1ccncc1)C(NC)c1ccncc1` (centres undefined): the T/C by setting is: under setting [7], 95 % of control; under setting [11], 91 % of control.
